Our source for the IC50 values is patent US12209102B2, “Heterocyclic compounds and uses thereof” (Kumquat Biosciences Inc., priority 2022, dated 2025).

This assay concerns GP2D cells. The assay is described as follows: Ras cellular assay, growth of cells with K-Ras G12D mutation (CellTiter-Glo). Format: cell-based. The following applies: cell growth, Example 9, G12D mutation, read-out: IC50 against GP2D cells.

As a reminder, the IC50 is the midpoint of a concentration-inhibition curve. As to `C[C@H]1COc2c(Cl)c(-c3ccc(F)c4sc(N)c(C#N)c34)c(F)c3nc(OC[C@@]45CCCN4C[C@H](F)C5)nc(c23)N1C1CCOC1` (stereo partly drawn) [Compound 647, 2-amino-4-((5S)-8-chloro-10-fluoro-2-(((2R,7aS)-2-fluorotetrahydro-1H-pyrrolizin-7a(5H)-yl)methoxy)-5-methyl-4-(tetrahydrofuran-3-yl)-5,6-dihydro-4H-[1,4]oxazepino[5,6,7-de]quinazolin-9-yl)-7-fluorobenzo[b]thiophene-3-carbonitrile], the half-inhibitory concentration (IC50) was below 500 nM.
On to `N#Cc1c(N)sc2c(F)ccc(-c3c(Cl)c4c5c(nc(OC[C@@]67CCCN6C[C@H](F)C7)nc5c3F)N(C3CCC5(C3)CN(C(=O)C3CC3)C5)CCO4)c12` (stereo partly drawn) [Compound 650, 2-amino-4-(8-chloro-4-(2-(cyclopropanecarbonyl)-2-azaspiro[3.4]octan-6-yl)-10-fluoro-2-(((2R,7aS)-2-fluorotetrahydro-1H-pyrrolizin-7a(5H)-yl)methoxy)-5,6-dihydro-4H-[1,4]oxazepino[5,6,7-de]quinazolin-9-yl)-7-fluorobenzo[b]thiophene-3-carbonitrile], for which the IC50 was below 500 nM.
The figure for `C[C@H]1COc2c(Cl)c(-c3ccc(F)c4sc(N)c(C#N)c34)c(F)c3nc(OC[C@@]45CCCN4C[C@H](F)C5)nc(c23)N1CC1CC1C#N` (stereo partly drawn) [Compound 731, 2-amino-4-((5S)-8-chloro-4-((2-cyanocyclopropyl)methyl)-10-fluoro-2-(((2R,7aS)-2-fluorotetrahydro-1H-pyrrolizin-7a(5H)-yl)methoxy)-5-methyl-5,6-dihydro-4H-[1,4]oxazepino[5,6,7-de]quinazolin-9-yl)-7-fluorobenzo[b]thiophene-3-carbonitrile] is below 500 nM.
For the molecule `N#Cc1c(N)sc2c(F)ccc(-c3c(Cl)c4c5c(nc(OC[C@@]67CCCN6C[C@H](F)C7)nc5c3F)N(C3CCOC3)[C@@H](C(F)F)CO4)c12` (stereo partly drawn) [Compound 871, 2-amino-4-((5R)-8-chloro-5-(difluoromethyl)-10-fluoro-2-(((2R,7aS)-2-fluorotetrahydro-1H-pyrrolizin-7a(5H)-yl)methoxy)-4-(tetrahydrofuran-3-yl)-5,6-dihydro-4H-[1,4]oxazepino[5,6,7-de]quinazolin-9-yl)-7-fluorobenzo[b]thiophene-3-carbonitrile], the IC50 was below 500 nM.
The figure for `N#Cc1c(N)sc2c(F)ccc(-c3c(Cl)c4c5c(nc(OC[C@@]67CCCN6C[C@H](F)C7)nc5c3F)N(CC3CC3C#N)[C@@H](C(F)F)CO4)c12` (stereo partly drawn) [Compound 938, 2-amino-4-((5R)-8-chloro-4-((2-cyanocyclopropyl)methyl)-5-(difluoromethyl)-10-fluoro-2-(((2R,7aS)-2-fluorotetrahydro-1H-pyrrolizin-7a(5H)-yl)methoxy)-5,6-dihydro-4H-[1,4]oxazepino[5,6,7-de]quinazolin-9-yl)-7-fluorobenzo[b]thiophene-3-carbonitrile] is below 500 nM.
For `N#Cc1c(N)sc2c(F)ccc(-c3c(Cl)c4c5c(nc(OC[C@@]67CCCN6C[C@H](F)C7)nc5c3F)N(C3CC(NC=O)C3)CCO4)c12` (stereo partly drawn) [Compound 988, N-(3-(9-(2-amino-3-cyano-7-fluorobenzo[b]thiophen-4-yl)-8-chloro-10-fluoro-2-(((2R,7aS)-2-fluorotetrahydro-1H-pyrrolizin-7a(5H)-yl)methoxy)-5,6-dihydro-4H-[1,4]oxazepino[5,6,7-de]quinazolin-4-yl)cyclobutyl)formamide], the IC50 was below 500 nM.
